# Measured values reported in patent US11103548B2, “Treatment of endometriosis, angiogenesis and/or endometrial lesion growth” (priority 2013, dated 2021).
# No end group written: not given here. *: point of attachment. FITC = O=C1OC2(c3ccc(O)cc3Oc3cc(O)ccc32)c2ccc(NC(=S)*)cc21
# Tests used:
# fertility of the animals = test: fertility by mating in humanized animal models of endometriosis after treatment; assay type: in vivo; conditions: mating after endometriosis is inhibited and treatment is stopped
# Procedure: The ability of ST011 to inhibit endometriosis without effecting fertility can be confirmed in, for example, animal model of endometriosis. For these experiments, humanized animal models of endometriosis first can be treated with ST011 and once endometriosis is inhibited and treatment is stopped, fertility of the animals is tested by mating.
# HUVECs [1] = test: WST-1 proliferation assay; assay type: cell-based; conditions: 600 ng/mL to 2.5 ng/mL, 48 hours of treatment, PBS control
# Procedure: Endothelial cells are an integral part of blood vessels and the proliferation of endothelial cells is extremely important for angiogenesis. Therefore, to assess the role of α-synuclein in endothelial cell proliferation, HUVECs were plated and treated with various concentrations of TATST011 peptide GNSALHVASQHG (SEQ ID NO: 2) ranging from 600 ng/mL to 2.5 ng/mL using PBS as a control. In order to measure the effect of TAT-ST011 peptide GNSALHVASQHG (SEQ ID NO: 2) on HUVEC proliferation a WST-1 proliferation assay was performed.
# HUVECs and epithelial cells were trypsinized, suspended in cultured medium and counted. Approximately 10,000 cells per well were seeded onto a 96 well plate. After allowing 24 hours for attachment in 37° C., the cells were treated with either 600 ng/mL, 300 ng/mL, 150 ng/mL, 5 ng/mL or 2.5 ng/mL of TAT-P12 using phosphate buffer saline (PBS, (Sigma Chemical Co., St. Louis, Mo., USA) as a control. The drug was suspended in RPMI. The plates were incubated in 37° C. for 24 or 48 hours after which 10 μL of WST-1 (Roche, Laval, QC, Canada) was added to each well. The plate was then incubated in 37° C. for another 4 hours. The absorbance of the wells was measured at a wavelength of 490 nm or at 510 nm.
# CRL 7566 cells = test: intracellular permeability by fluorescent microscopy; assay type: cell-based; conditions: 20 micro molar FITC tagged peptide, after 6 hours
# Procedure: To further examine the utility of the ST011 peptide as a therapeutic tool against angiogenesis, endometriosis and/or endometrial lesion growth, this peptide was further examined to observe its intracellular permeability in endometrial cells. For these experiments, GYGRKKRRQRRR (TAT) tagged GNSALHVASQHG (ST011) (SEQ ID NO: 10) and a control peptide GYGRKKRRQRRR (TAT CTL; SEQ ID NO: 11) were chemically synthesized. Each peptide contained FITC on its N-terminal end. These peptides were dissolved in 2% DMSO in PBS (pH 7.3) and applied directly on the Petri dish containing model cells (CRL 7566 or HUVECs) at required concentrations. Active internalization of peptide was observed using fluorescent microscopy. Three independent experiments were performed with duplicates of each condition. Model cell line for endometriosis, CRL 7566 cells (FIG. 2) received 20 micro molar FITC tagged TAT-ST011. After 6 hours cells were examined under fluorescent microscope.
# SNCG = target: T1, SNCG (Homo sapiens, UniProt O76070); test: co-immunoprecipitation (co-IP) of peptide with SNCG in MCF7-SNCG cells; assay type: binding; conditions: FITC tagged peptide, 8 hour after treatment, IP with anti-SNCG antibody, western blot with anti-FITC antibody
# T1 construct: expressed in transfected cells; host or cells: MCF7-SNCG cells
# Procedure: In vivo binding of ST011 to SNCG was examined in co-immunoprecipitation (co-IP) experiments (See FIG. 1). MCF7-SNCG cells were treated with FITC tagged […] (TAT)-ST011 (SEQ ID NO: 10) (lane 1 of FIG. 1), or FITC tagged YGRKKRRQRRR (TAT) alone (SEQ ID NO: 11) (lane 2 of FIG. 1) or no treatment control (lane 3 of FIG. 1). 8 hour after treatment, cell lysates were prepared and IP with anti-SNCG antibody was conducted. The presence of TAT-ST011 in SNCG IP complexes obtained from different treated cells was detected by western blot using anti-FITC antibody. […] Thus, FIG. 1 provides further evidence that SNCG is capable of immunoprecipitating TAT-ST011.
# HUVECs [2] = test: in vitro angiogenic tube formation on gel matrix; assay type: cell-based
# Procedure: Next, effect of TAT-ST011 peptide GNSALHVASQHG (SEQ ID NO: 2) on angiogenesis and tube formation of HUVEC cell was evaluated.
# Extracellular matrix gel solution (Cell biolabs inc, San Diego, Calif., USA) had been thawed overnight at 4° C. and approximately […] of ECM gel solution was added to each well of a 96 well plate. The plate was incubated at 37° C. for 1 hour. HUVECs were trypsinized from culture and approximately 20,000 cells were added per well to the ECM containing 96 well plate. Each well was treated with […] of TAT-P12 at a concentration of 600 ng/mL, 300 ng/mL, 150 ng/mL, 5 ng/mL or 2.5 ng/mL. PBS was used as a control. The tube formation was visualized using a spinning disc confocal microscope and the images were stacked together using ImageJ.
# [3] = test system: human endometriotic lesions; test: mouse xenograft model of endometriosis, gross observation of lesion growth and vascularization; assay type: in vivo, mice; conditions: 20 mg/kg daily intraperitoneal for 21 days, necropsy one week after treatment, versus saline
# Procedure: Gross observation of endometriotic lesion growth and vascularization in vivo was performed using an animal model. […] The peritoneal cavity of the mice was exposed using surgical tools and the endometriotic lesions were located manually.
# A mouse xenograft model was developed using Rag2^−/−/I12rg^−/− double knockout mice on a BalbC background.
# Since human estrogen is important for the growth of human endometriotic lesions the mice (n=12) had 60-day release 13-estradiol 17-acetate pellets (15 mg/pellet) (Innovative Research of America, Sarasota, Fla., USA) subcutaneously implanted. The mice were anaesthetized with isofluorane (Pharmaceutical Partners of Canada, Richmond Hill, ON, Canada).
# Five days after the implantation of the estrogen 5 pellet, eutopic endometrium obtained from hysterectomy and endometrial biopsies performed at Kingston General Hospital was implanted in the peritoneal cavity of the mice. The obtained endometrium was cut into equal pieces and washed with PBS. The pieces of endometrium were kept in PBS on ice until the surgeries were performed. The mice were anaesthetized in an isofluorane chamber and a small incision was made in their abdomen. Two to three lesions were adhered on the left side of the peritoneal cavity using Vetbond tissue adhesive (3M, St. Paul, Minn., USA) and one or two pieces were dropped freely in the cavity. […]
# T1 sequence (O76070 whole entry): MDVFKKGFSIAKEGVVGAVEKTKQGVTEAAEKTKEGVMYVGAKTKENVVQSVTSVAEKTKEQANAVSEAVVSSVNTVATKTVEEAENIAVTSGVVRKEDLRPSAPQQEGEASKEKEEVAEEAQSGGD
Substance,effect on fertility of the animals (fertility of the animals),proliferation of HUVECs (HUVECs [1]),internalization of peptide into endometrial cells (CRL 7566 cells),co-precipitation with SNCG (binding to SNCG) (SNCG),morphology of the HUVECs (cell lysis) (HUVECs [2]; 300 ng/mL and 600 ng/mL),concentration that inhibited tube formation and also changed the morphology of the HUVECs (HUVECs [2]; HUVECs on gel matrix) [ng/mL],"tube formation / branching of HUVECs (HUVECs [2]; various concentrations (600 to 2.5 ng/mL), confocal microscopy)",endometriotic lesion growth [3],vascularization of the lesions [3]
"Ac-GNSALHVASQHG-NH2 [ST011 peptide, GNSALHVASQHG]",no effect of ST011 peptide on the fertility,,,,,,,,
GYGRKKRRQRRR (TAT) tagged GNSALHVASQHG (ST011) [TAT-ST011],,dose dependently decreased the proliferation of HUVECs,capable of going inside endometrial cells,co-precipitate with SNCG,caused the cells to lyse,≥ 5,dose dependent inhibition of tube formation,inhibited growth of lesion,prevented the formation of blood vessels to the lesions
"GYGRKKRRQRRR ({FITC}-GYGRKKRRQRRR) [TAT alone, control peptide … (TAT CTL, reference compound]",,,,not TAT alone is found to co-precipitate with SNCG,,,,,
